{
  "source": "patent US20150250786A1",
  "about": "“PYRIMIDINE HYDROXY AMIDE COMPOUNDS AS PROTEIN DEACETYLASE INHIBITORS AND METHODS OF USE THEREOF” (THE TRUSTEES OF THE UNIVERSITY OF PENNSYLVANIA, priority 2012, published 2015)",
  "key": {"[1]": {"test": "Pharmacokinetics and brain bio-distribution in mice", "format": "in vivo, mouse", "conditions": "mouse; for Kp: brain, calculated over 2 hours", "method": "[…] Plasma samples were taken from all mice upon sacrifice. Brain samples were taken from the mice sacrificed at 5 and 15 minutes and 1 and 4 hours. The brain samples were homogenized in PBS and centrifuged at 14000 rpm for 5 minutes. The supernatant from the brain homogenate and the plasma samples were injected onto a LC/MS/MS for analysis. The compound level in the samples was determined by a standard curve in the appropriate matrix. Pharmacokinetic parameters were determined from the raw data by WinNonLin."}, "mice [2]": {"test_system": "mice", "test": "Open-field test", "format": "in vivo, mouse"}, "mice [3]": {"test_system": "mice", "test": "NIH test", "format": "in vivo, mouse", "conditions": "acute, 50 mg/kg"}, "[4]": {"test_system": "NIH Swiss mice; C57BL/6J HDAC6 WT and KO mice", "test": "Tail suspension test (TST)", "format": "in vivo, mouse", "conditions": "for immobility in TST: NIH Swiss mice"}, "mice [5]": {"test_system": "mice", "test": "Elevated plus maze (EPM)", "format": "in vivo, mouse", "conditions": "acute administration"}, "mice [6]": {"test_system": "mice", "test": "Marble-burying task", "format": "in vivo, mouse", "conditions": "acute administration"}, "[7]": {"test_system": "RN46A-B14 serotonergic cell line", "test": "Histone H3K9 acetylation in RN46A-B14 cells (Western blot)", "format": "cell-based, rat", "conditions": "2.5 μM, 4 hours"}, "mice [8]": {"test_system": "mice", "test": "Chronic social defeat (CSD) and social interaction test", "format": "in vivo, mouse", "conditions": "compound 73 5 mg/kg", "method": "Additionally, when combined with a dose of Citalopram with lower activity, these compounds seemed to have an additive effect (See FIG. 10). The dose of Citalopram chosen for this experiment was based on literature stating 2 mg/kg should be subactive, but this dose was found still showing an effect. Mice then underwent chronic social defeat stress, in which the mice are exposed to an aggressive resident mouse for 5 minutes daily for 10 days and are then tested on the 11th day in the social interaction test. Mice treated with vehicle for 20 total days, beginning 10 days before the defeat, show reduced time spent in the interaction zone when a target mouse is present when compared with control mice. […] The percent of mice found to be resilient, defined as spending more time in the interaction zone than the lowest control (i.e. ˜52 s), is higher in HDAC6 inhibitor groups. All behavior testing done using NIH Swiss mice, age 6-10 weeks. Tukey post-hoc analysis: * P=0.01 to 0.05, ** P=0.001-0.01, ***P<0.001 compared with vehicle treated mice.\nThe effects were observed 30 minutes after acute 50 mg/kg i.p. injection, but not for the lower dose (5 mg/kg). Combination of subactive doses of the HDAC6 selective inhibitors (5 mg/kg) and citalopram (0.5 mg/kg) produced robust potentiation of anti-immobility activity (n=8-29 per condition). […] No difference was observed between HDAC6 WT and KO when treated with the vehicle (n=6-15 per condition). FIG. 16c is a timeline showing treatment period, social defeat and social interaction (SI) testing.\nA pro-resilient phenotype in the mouse CSD paradigm after serotonin-selective KO of HDAC6 was previously reported (Espallergues et al, 2012). Whether a chronic pharmacological inhibition of HDAC6 can replicate that phenotype is studied. […] On day 21, 24 h after the last injection, the mice were tested in the social interaction test. […] Significant effects were also observed when data was evaluated in terms of proportion of mice reaching criterion for resiliency."}, "[9]": {"test_system": "α-tubulin K40 acetylation in cortex, hippocampus, DRN, cerebellum", "test": "α-tubulin acetylation in brain regions after subchronic administration, WT and HDAC6 KO mice", "format": "in vivo, mouse", "method": "Results are shown as percent change normalized to the vehicle treatment condition. The horizontal hard line depicts average and the dotted lines depict SEM of the vehicle treated wells. Representative Western blot images are presented. […] Representative Western blot images are presented. […] […] The changes in tubulin acetylation were measured in tissue lysates from cortex (ctx), hippocampus (Hpc), dorsal Raphe nucleus (DRN) and cerebellum (cb). The tubulin acetylation levels in drug-treated mice are expressed as percent change of the vehicle-treated mice of the corresponding genotype. The horizontal lines depict the average tubulin acetylation±SEM in the vehicle treated mice. The representative Western blot images show the changes induced by each drug treatment in the hippocampus (left column) and dorsal raphe (right column) of WT and HDAC6 KO mice."}, "[10]": {"test": "Body weight gain during chronic treatment", "format": "in vivo, mouse", "conditions": "4 weeks of treatment"}, "[11]": {"test_system": "histone H3 lysine 9 acetylation", "test": "Histone H3K9 acetylation in vivo (Western blot, ChIP)", "set-up": "species or system mouse"}, "[12]": {"test_system": "RN46A-B14 serotonergic cell line", "test": "α-tubulin K40 acetylation in RN46A-B14 cells (Western blot)", "format": "cell-based, rat", "conditions": "4 hours; TSA 0.6 μM, others 2.5 μM", "method": "In FIG. 3, it was observed that subchronic treatment, consisting of 5 treatments at 48, 28, 24, 4 and ½ hours before sacrifice, led to greater increase in tubulin acetylation than did chronic treatment of 1 injection/day for 21 days. For cell culture, RN46B cells were treated for with 0.25, 2.5 or 25 μM drug in DMSO for 1, 4 or 24 hours as indicated. Tukey post-hoc analysis: * P=0.01 to 0.05, ** P=0.001-0.01, ***P<0.001 when compared with vehicle treatment.\nResults are shown as percent change normalized to the vehicle treatment condition. The horizontal hard line depicts average and the dotted lines depict SEM of the vehicle treated wells. Representative Western blot images are presented. […] Representative Western blot images are presented. […] The drugs (5 mg/kg) were administered subchronically (at 24 h, 4 h and 30 min prior to sacrifice) to HDAC6 KO and WT littermates. The changes in tubulin acetylation were measured in tissue lysates from cortex (ctx), hippocampus (Hpc), dorsal Raphe nucleus (DRN) and cerebellum (cb). The tubulin acetylation levels in drug-treated mice are expressed as percent change of the vehicle-treated mice of the corresponding genotype. The horizontal lines depict the average tubulin acetylation±SEM in the vehicle treated mice. The representative Western blot images show the changes induced by each drug treatment in the hippocampus (left column) and dorsal raphe (right column) of WT and HDAC6 KO mice.\nIn contrast to the class I isoforms HDAC2 and 3, which are expressed highly and ubiquitously in the mouse brain, HDAC6 mRNA expression appears to be restricted to a small number of brain areas, with highest signal observed in DRN (FIG. 13f). […] No changes in total α-tubulin expression were detected (FIG. 14a)."}, "[13]": {"test_system": "α-tubulin acetylation in mouse whole brain lysates", "test": "α-tubulin acetylation in whole brain lysates after single i.p. administration", "format": "in vivo", "conditions": "compound 73 5 mg/kg, compound 101 50 mg/kg, tubastatin A 10 mg/kg, 30 min, 1 h, 4 h"}},
  "note": "“And” between values parts separate entries of the source, which are not always exact repeats. Equal entries are not always repeated. Where two headings read alike, the source gives them in different places.",
  "data": [
    {"compound": "O=C(NO)c1cnc(NC2(c3ccccc3)CC2)nc1", "note": "[Compound 73, N-hydroxy-2-((1-phenylcyclopropyl)amino)pyrimidine-5-carboxamide]", "values": [
      {"measurement": "Kp", "setting": "[1]; C57BL/6J, intraperitoneal, read-out: AUCBrain/AUCplasma", "value": 1.22},
      {"measurement": "concentration at 30 min", "setting": "[1]; C57BL/6J, plasma, intraperitoneal, 5 mg/kg, read-out: 30 min plasma concentration (ng/ml) - 5 mg/kg", "value": 89, "unit": "ng/mL"},
      {"measurement": "concentration at 30 min", "setting": "[1]; C57BL/6J, plasma, intraperitoneal, 50 mg/kg, read-out: 30 min plasma concentration (ng/ml) - 50 mg/kg", "value": 515, "unit": "ng/mL"},
      {"measurement": "Cmax", "setting": "[1]; C57BL/6J, plasma, ip, 5 mg/kg, mice, acute i.p. dosing, read-out: Cmax", "value": 494, "unit": "ng/mL"},
      {"measurement": "half-life", "setting": "[1]; C57BL/6J, plasma, ip, mice, acute i.p. dosing, read-out: T½ plasma (converted)", "value": 12, "unit": "min"},
      {"measurement": "Kp", "setting": "[1]; intraperitoneal, read-out: AUCBrain/AUCplasma ratio", "value": "> 1"},
      {"measurement": "concentration at 30 min", "setting": "[1]; plasma, intraperitoneal, acute 50 mg/kg injection, read-out: plasma level at t=30 minutes", "value": "515 ng/mL and 1.9 µM"},
      {"measurement": "concentration at 2 h", "setting": "[1]; plasma, intraperitoneal, read-out: plasma concentration after two hours", "value": "< 10", "unit": "ng/mL"},
      {"measurement": "half-life", "setting": "[1]; plasma, intraperitoneal, read-out: plasmatic half-life", "value": 12, "unit": "min"},
      {"measurement": "exploratory activity in novel open-field arena", "setting": "mice [2]; acute, compounds 73, 101 50 mg/kg, tubastatin A 10 mg/kg", "value": "hyperlocomotor effects"},
      {"measurement": "distance in the center of the open field", "setting": "mice [2]; mouse, in vivo", "value": "602±96", "unit": "beam breaks"},
      {"measurement": "latency to eat in the NIH test", "setting": "mice [3]", "value": "significantly decreased"},
      {"measurement": "immobility in TST", "setting": "[4]; 5 mg/kg", "value": "No significant effect"},
      {"measurement": "activity in TST two hours after the injection", "setting": "[4]; 20 mg/kg citalopram, 50 mg/kg compound 73", "value": "still had significant activity"},
      {"measurement": "immobility in TST", "setting": "[4]; 50 mg/kg i.p., 30 minutes", "value": "Significant reductions"},
      {"measurement": "anti-immobility effect in HDAC6 KO mice", "setting": "[4]; C57BL/6J background, versus WT littermates", "value": "no significant effect"},
      {"measurement": "anti-immobility effects in C57BL/6J WT mice", "setting": "[4]; mouse, in vivo", "value": "still significant"},
      {"measurement": "behavioral changes / time in the open arms of the maze", "setting": "mice [5]", "value": "neither compound 73 nor compound 101 produced behavioral changes"},
      {"measurement": "number of marbles buried", "setting": "mice [6]", "value": "significantly reduced"},
      {"measurement": "change in histone H3K9 acetylation", "setting": "[7]", "value": "no significant change"},
      {"measurement": "time in the interaction zone versus vehicle, defeated mice", "setting": "mice [8]; 20 days treatment, fluoxetine 20 mg/kg, compound 101 50 mg/kg", "value": "significantly higher"},
      {"measurement": "percentage of resilient mice", "setting": "mice [8]; after CSD, fluoxetine 20 mg/kg, compound 101 50 mg/kg", "value": 81, "unit": "%"},
      {"measurement": "time spent in the corner zones", "setting": "mice [8]; versus vehicle", "value": "decrease"},
      {"measurement": "α-tubulin acetylation over baseline levels", "setting": "[9]; HDAC6 KO mice, identical treatment regimens", "value": "did not produce increases"},
      {"measurement": "α-tubulin acetylation in cortex, hippocampus, DRN, cerebellum", "setting": "[9]; wild-type mice, 24 h, 4 h, 30 m before sacrifice, compound 73 5 mg/kg, compound 101 50 mg/kg", "value": "significant increases"},
      {"measurement": "body weight gain", "setting": "[10]", "value": "no significant effect"},
      {"measurement": "histone H3K9 acetylation enrichment at promoter DNA (cFOS, BDNF promoter 4), ChIP", "setting": "[11]; hippocampus, repeated i.p., compound 73 5 mg/kg, sodium butyrate 1.2 g/kg", "value": "no concurrent changes"},
      {"measurement": "acetylation of histone 3 at lysine 9 in Western blot", "setting": "[11]; in vivo treatment", "value": "did not significantly alter"},
      {"measurement": "acetylated (lysine 40) fraction of α-tubulin", "setting": "[12]", "value": "increases"},
      {"measurement": "α-tubulin acetylation in whole brain lysates", "setting": "[13]", "value": "significant increases"}
    ]}
  ]
}
